# ChEMBL document CHEMBL1147043, “Comparative metabolism of radiolabeled muraglitazar in animals and humans by quantitative and qualitative metabolite profiling” (Drug Metab Dispos, 2007)
# How the values were obtained:
# [1] = test system: Hepatocyte; assay: Metabolic stability in human hepatocytes assessed as 12-hydroxy muraglitazar level by LC/MS analysis relative to control; type: ADME, cell-based
# [2] = Biodistribution in orally dosed cynomolgus monkey feces assessed as O-demethyl muraglitazar level by LC/MS analysis; type: ADME, organism-based, Macaca fascicularis; details: in vivo, po
# [3] = test system: Plasma; assay: Biodistribution in orally dosed Beagle dog plasma assessed as 17-dihydroxy muraglitazar level after 1 hr by LC/MS analysis; type: ADME, organism-based, Canis lupus familiaris; details: in vivo, po
# [4] = test system: Plasma; assay: Biodistribution in orally dosed cynomolgus monkey plasma assessed as 12-dihydroxy muraglitazar level after 12 hrs by LC/MS analysis; type: ADME, organism-based, Macaca fascicularis; details: in vivo, po
# [5] = Drug concentration in Sprague-Dawley rat urine at 11 mg/kg, po after 12 hrs; type: ADME, organism-based; set-up: dose 11 mg/kg, route oral; details: read-out: Drug uptake
# [6] = Biodistribution in orally dosed cynomolgus monkey feces assessed as 17-hydroxy muraglitazar level by LC/MS analysis; type: ADME, organism-based, Macaca fascicularis; details: in vivo, po
# [7] = Biodistribution in orally dosed human urine assessed as 8-hydroxy muraglitazar level by LC/MS analysis; type: ADME, organism-based; details: in vivo, po
# [8] = Metabolic stability in CD1 mouse hepatocytes assessed as 8-hydroxy-O-demethyl muraglitazar level by LC/MS analysis relative to control; type: ADME, cell-based, Hepatocyte
# [9] = test system: Plasma; assay: Biodistribution in orally dosed cynomolgus monkey plasma assessed as 17-dihydroxy muraglitazar level after 1 hr by LC/MS analysis; type: ADME, organism-based, Macaca fascicularis; details: in vivo, po
# [10] = test system: Plasma; assay: Biodistribution in orally dosed cynomolgus monkey plasma assessed as 17-dihydroxy muraglitazar level after 12 hrs by LC/MS analysis; type: ADME, organism-based, Macaca fascicularis; details: in vivo, po
# [11] = test system: Plasma; assay: Biodistribution in orally dosed Sprague-Dawley rat plasma assessed as 8-hydroxy-O-demethyl muraglitazar level after 12 hrs by LC/MS analysis; type: ADME, organism-based; details: in vivo, po
# [12] = test system: Plasma; assay: Biodistribution in orally dosed cynomolgus monkey plasma assessed as O-Dealkyl muraglitazar level after 4 hrs by LC/MS analysis; type: ADME, organism-based, Macaca fascicularis; details: in vivo, po
# [13] = Fecal excretion rate in orally dosed Beagle dog within 48 hrs; type: ADME, organism-based, Canis lupus familiaris; details: faeces, po, read-out: Activity
# [14] = test system: Homo sapiens; assay: AUC (0 to T) in human at 10 mg, po after 72 hrs; type: ADME, organism-based, Plasma; set-up: dose 10 mg, time < 72 hr, route oral; details: in vivo
# [15] = Biodistribution in orally dosed cynomolgus monkey feces assessed as 12-hydroxy-O-demethyl muraglitazar level by LC/MS analysis; type: ADME, organism-based, Macaca fascicularis; details: in vivo, po
# [16] = test system: Plasma; assay: Biodistribution in orally dosed Sprague-Dawley rat plasma assessed as 12,17-dihydroxy muraglitazar level after 12 hrs by LC/MS analysis; type: ADME, organism-based; details: in vivo, po
# [17] = test system: Plasma; assay: Biodistribution in orally dosed cynomolgus monkey plasma assessed as muraglitazar 12-carboxylic acid level after 4 hrs by LC/MS analysis; type: ADME, organism-based, Macaca fascicularis; details: in vivo, po
# [18] = Bile excretion of compound in bile duct-cannulated orally dosed Sprague-Dawley rat within 24 hrs; type: ADME, organism-based; details: po, read-out: Activity
# [19] = test system: Rattus norvegicus; assay: Biodistribution in orally dosed Sprague-Dawley rat feces assessed as 12-hydroxy-O-demethyl muraglitazar level by LC/MS analysis; type: ADME, organism-based; details: in vivo, po
# [20] = test system: Hepatocyte; assay: Metabolic stability in Sprague-Dawley rat hepatocytes assessed as 9-hydroxy muraglitazar level by LC/MS analysis relative to control; type: ADME, cell-based
# [21] = Metabolic stability in cynomolgus monkey hepatocytes assessed as O-dealkyl-O-demethyl muraglitazar level by LC/MS analysis relative to control; type: ADME, cell-based, Macaca fascicularis, Hepatocyte
# [22] = Biodistribution in orally dosed Beagle dog feces assessed as imide derivative of muraglitazar level by LC/MS analysis; type: ADME, organism-based, Canis lupus familiaris; details: in vivo, po
# [23] = Biodistribution in orally dosed cynomolgus monkey feces assessed as 9-hydroxy-O-demethyl muraglitazar level by LC/MS analysis; type: ADME, organism-based, Macaca fascicularis; details: in vivo, po
# [24] = test system: Plasma; assay: Biodistribution in orally dosed human plasma assessed as 12,17-dihydroxy muraglitazar level after 4 hrs by LC/MS analysis; type: ADME, organism-based; details: in vivo, po
# [25] = test system: Rattus norvegicus; assay: Cmax in Sprague-Dawley rat at 10 mg/kg, po after 24 hrs; type: ADME, organism-based; set-up: dose 10 mg/kg, route oral; details: in vivo
# [26] = test system: Hepatocyte; assay: Metabolic stability in Sprague-Dawley rat hepatocytes assessed as 12,17-dihydroxy muraglitazar level by LC/MS analysis relative to control; type: ADME, cell-based
# [27] = test system: Plasma; assay: Biodistribution in orally dosed Sprague-Dawley rat plasma assessed as O-Dealkyl muraglitazar level after 12 hrs by LC/MS analysis; type: ADME, organism-based; details: in vivo, po
# [28] = Metabolic stability in cynomolgus monkey hepatocytes assessed as hydroxyl-O-demethyl muraglitazar glucuronide level by LC/MS analysis relative to control; type: ADME, cell-based, Macaca fascicularis, Hepatocyte
# [29] = Biodistribution in orally dosed cynomolgus monkey feces assessed as muraglitazar glucuronide level by LC/MS analysis; type: ADME, organism-based, Macaca fascicularis; details: in vivo, po
# [30] = test system: Hepatocyte; assay: Metabolic stability in Sprague-Dawley rat hepatocytes assessed as 8-hydroxy muraglitazar level by LC/MS analysis relative to control; type: ADME, cell-based
# [31] = test system: Rattus norvegicus; assay: Biodistribution in orally dosed Sprague-Dawley rat urine assessed as O-demethyl muraglitazar level by LC/MS analysis; type: ADME, organism-based; details: in vivo, po
# [32] = test system: Hepatocyte; assay: Metabolic stability in Sprague-Dawley rat hepatocytes assessed as 17-hydroxy muraglitazar level by LC/MS analysis relative to control; type: ADME, cell-based
# [33] = test system: Rattus norvegicus; assay: Biodistribution in orally dosed Sprague-Dawley rat urine assessed as muraglitazar 12-carboxylic acid level by LC/MS analysis; type: ADME, organism-based; details: in vivo, po
# [34] = test system: Hepatocyte; assay: Metabolic stability in human hepatocytes assessed as radioactivity recovaries at 25.6 ug/mL after 4 hrs; type: ADME, cell-based
# [35] = Metabolic stability in cynomolgus monkey hepatocytes assessed as O-demethyl muraglitazar glucuronide level by LC/MS analysis relative to control; type: ADME, cell-based, Macaca fascicularis, Hepatocyte
# [36] = Biodistribution in orally dosed human feces assessed as 17-hydroxy muraglitazar level by LC/MS analysis; type: ADME, organism-based; details: in vivo, po
# [37] = test system: Hepatocyte; assay: Metabolic stability in Sprague-Dawley rat hepatocytes assessed as hydroxyl-O-demethyl muraglitazar glucuronide level by LC/MS analysis relative to control; type: ADME, cell-based
# [38] = Metabolic stability in CD1 mouse hepatocytes assessed as 17-hydroxy muraglitazar level by LC/MS analysis relative to control; type: ADME, cell-based, Hepatocyte
# [39] = test system: Plasma; assay: Biodistribution in orally dosed human plasma assessed as muraglitazar glucuronide level after 12 hrs by LC/MS analysis; type: ADME, organism-based; details: in vivo, po
# [40] = Metabolic stability in CD1 mouse hepatocytes assessed as 12-hydroxy-O-demethyl muraglitazar level by LC/MS analysis relative to control; type: ADME, cell-based, Hepatocyte
# [41] = test system: Plasma; assay: Biodistribution in orally dosed cynomolgus monkey plasma assessed as 12,17-dihydroxy muraglitazar level after 12 hrs by LC/MS analysis; type: ADME, organism-based, Macaca fascicularis; details: in vivo, po
# [42] = test system: Rattus norvegicus; assay: Biodistribution in orally dosed Sprague-Dawley rat feces assessed as O-demethyl muraglitazar level by LC/MS analysis; type: ADME, organism-based; details: in vivo, po
# [43] = Biodistribution in orally dosed Beagle dog feces assessed as 9,12-dihydroxy muraglitazar level by LC/MS analysis; type: ADME, organism-based, Canis lupus familiaris; details: in vivo, po
# [44] = test system: Plasma; assay: Biodistribution in orally dosed cynomolgus monkey plasma assessed as muraglitazar glucuronide level after 4 hrs by LC/MS analysis; type: ADME, organism-based, Macaca fascicularis; details: in vivo, po
# [45] = test system: Plasma; assay: Biodistribution in orally dosed Sprague-Dawley rat plasma assessed as […] muraglitazar level after 12 hrs by LC/MS analysis; type: ADME, organism-based; details: in vivo, po
# [46] = Biodistribution in orally dosed Beagle dog feces assessed as O-dealkyl muraglitazar level by LC/MS analysis; type: ADME, organism-based, Canis lupus familiaris; details: in vivo, po
# [47] = Biodistribution in orally dosed Beagle dog urine assessed as O-dealkyl-O-demethyl muraglitazar level by LC/MS analysis; type: ADME, organism-based, Canis lupus familiaris; details: in vivo, po
# [48] = test system: Plasma; assay: Biodistribution in orally dosed human plasma assessed as 12-hydroxy-O-demethyl muraglitazar level after 4 hrs by LC/MS analysis; type: ADME, organism-based; details: in vivo, po
# [49] = Drug concentration in bile duct-cannulated CD1 mouse bile at 1 mg/kg, po after 24 hrs; type: ADME, organism-based; set-up: dose 1 mg/kg, route oral; details: in vivo
# [50] = test system: Plasma; assay: Biodistribution in orally dosed Sprague-Dawley rat plasma assessed as 17-dihydroxy muraglitazar level after 12 hrs by LC/MS analysis; type: ADME, organism-based; details: in vivo, po
# [51] = test system: Plasma; assay: Biodistribution in orally dosed human plasma assessed as 8-hydroxy-O-demethyl muraglitazar level after 4 hrs by LC/MS analysis; type: ADME, organism-based; details: in vivo, po
# [52] = test system: Plasma; assay: Biodistribution in orally dosed Beagle dog plasma assessed as O-demethyl muraglitazar level after 1 hr by LC/MS analysis; type: ADME, organism-based, Canis lupus familiaris; details: in vivo, po
compound,measurement,setting,value
COc1ccc(OC(=O)N(CC(=O)O)Cc2ccc(OCCc3nc(-c4ccccc4)oc3C)cc2)cc1 [MURAGLITAZAR],Drug uptake,[1],1.9%
same,Drug uptake,[2],7.24%
same,Drug uptake,[3],< 0.05%
same,Drug uptake,[4],0.4%
same,dose excreted at 12 h,[5],0.51%
same,Drug uptake,[6],25.73%
same,Drug uptake,[7],0.03%
same,Drug uptake,[8],4.8%
same,Drug uptake,[9],8%
same,Drug uptake,[10],21.4%
same,Drug uptake,[11],0.05%
same,Drug uptake,[12],0.3%
same,dose excreted at 48 h,[13],95%
same,AUC,[14],9 ugequiv.h/ml
same,Drug uptake,[15],1.61%
same,Drug uptake,[16],< 0.05%
same,Drug uptake,[17],< 0.05%
same,dose excreted at 24 h,[18],65%
same,Drug uptake,[19],2.63%
same,Drug uptake,[20],0.3%
same,Drug uptake,[21],< 0.2%
same,Drug uptake,[22],0.89%
same,Drug uptake,[23],0.32%
same,Drug uptake,[24],< 0.05%
same,Cmax,[25],13.5 ugequiv/ml
same,Drug uptake,[26],0.3%
same,Drug uptake,[27],0.05%
same,Drug uptake,[28],< 0.2%
same,Drug uptake,[29],0.8%
same,Drug uptake,[30],< 0.2%
same,Drug uptake,[31],0.12%
same,Drug uptake,[32],2%
same,Drug uptake,[33],< 0.01%
same,Stability,[34],98.7%
same,Drug uptake,[35],< 0.2%
same,Drug uptake,[36],5.92%
same,Drug uptake,[37],< 0.2%
same,Drug uptake,[38],5.4%
same,Drug uptake,[39],2.5%
same,Drug uptake,[40],3%
same,Drug uptake,[41],1%
same,Drug uptake,[42],34.2%
same,Drug uptake,[43],0.34%
same,Drug uptake,[44],0.2%
same,Drug uptake,[45],< 0.05%
same,Drug uptake,[46],0.89%
same,Drug uptake,[47],0.01%
same,Drug uptake,[48],0.3%
same,Drug uptake,[49],0.375 mgequiv/ml
same,Drug uptake,[50],< 0.05%
same,Drug uptake,[51],< 0.05%
same,Drug uptake,[52],1%
